SMILES strings stand for the structures. pIC50: −log10 of the molar value. A value given as a limit tells only on which side of the number the result lay.

The test system of assay [1] is HT-29. The assay can be described thus: Cytotoxicity against human HT-29 cells. Type of assay: functional, cell-based.
Assay [2] concerns A549. The assay can be described thus: Cytotoxicity against human A549 cells. Type of assay: functional, cell-based.

On to `CC[C@@]1(O)[C@]23O[C@H]2C[C@H]2C4=C(CC[C@@H]2[C@@]32O[C@H]2[C@@H]2O[C@@]21C(C)C)C(=O)OC4`, for which the pIC50 in assay [1] was 6.41; in assay [2] it was 5.55.
Taken in the same sequence, the figures for `CCc1c2c(nc3ccc(O)cc13)-c1cc3c(c(=O)n1C2)COC(=O)[C@]3(O)CC` [7-ETHYL-10-HYDROXYCAMPTOTHECIN] were 8.23 and 7.33.
Consider `Cc1occ2c1CC[C@H]1[C@H]2C[C@@H]2O[C@@]23[C@H](O)[C@@]2(C(C)C)O[C@H]2[C@@H]2O[C@@]123`, for which the pIC50 is 5.70 in assay [1] and 5.11 in assay [2].
For `CC(C)[C@]12O[C@H]1[C@@H]1O[C@]13[C@]1(O[C@H]1C[C@H]1C4=C(CC[C@@]13C)C(=O)OC4)[C@@H]2O` [TRIPTOLIDE], the results for the pIC50 in assay [1] and in assay [2] were 8.68 and 7.72, respectively.
Turning to `CC(C)[C@]12O[C@H]1[C@@H]1O[C@@]13[C@H]1CCC4=C(COC4=O)[C@@H]1C[C@@H]1O[C@@]13[C@]21CO1`, the results for the pIC50 in assay [1] and in assay [2] were 9.19 and 7.28, respectively.
As to `CC(C)[C@]12O[C@H]1[C@@H]1O[C@@]13[C@H]1CCC4=C(COC4=O)[C@@H]1C[C@@H]1O[C@@]13[C@H]2O`, the pIC50 in assay [1] was 7.11; in assay [2], 5.77.
Taken in the same sequence, the figures for `CCc1occ2c1CC[C@H]1[C@H]2C[C@@H]2O[C@@]23[C@H](O)[C@@]2(C(C)C)O[C@H]2[C@@H]2O[C@@]123` were under 4.87 and under 4.87.
Taken in the same sequence, the figures for `Cc1occ2c1CC[C@H]1[C@H]2C[C@@H]2O[C@]23[C@]12O[C@H]2[C@@H]1O[C@]1(C(C)C)[C@@]3(C)O` were under 4.87 and under 4.87.
For `Cc1occ2c1CC[C@H]1[C@H]2C[C@@H]2O[C@]23[C@]12O[C@H]2[C@@H]1O[C@]1(C(C)C)[C@]3(C)O`, the pIC50 in assay [1] and in assay [2] was under 4.87 each time.
Regarding `CC(C)[C@]12O[C@H]1[C@@H]1O[C@@]13[C@H]1CCC4=C(COC4=O)[C@@H]1C[C@@H]1O[C@@]13[C@@]2(C)O`, the values for the pIC50 in assay [1] and in assay [2] were 7.66 and 6.46, respectively.
With `CC(C)[C@]12O[C@H]1[C@@H]1O[C@@]13[C@@]1(C)CCC4=C(COC4=O)[C@@H]1C[C@@H]1O[C@@]13C2=O` [TRIPTONIDE], the pIC50 was 8.08 in assay [1] and 7.28 in assay [2].
For the molecule `CC(=O)O[C@@]12CO[C@@H]1C[C@H](O)[C@@]1(C)C(=O)[C@H](O)C3=C(C)[C@@H](OC(=O)[C@H](O)[C@@H](NC(=O)OC(C)(C)C)c4ccccc4)C[C@@](O)([C@@H](OC(=O)c4ccccc4)[C@H]21)C3(C)C` [DOCETAXEL], the pIC50 is 9.12 in assay [1] and 8.92 in assay [2].

The record behind these values is ChEMBL document CHEMBL1770149, “Semisynthesis of triptolide analogues: effect of γ-lactone and C-14 substituents on cytotoxic activities” (Bioorg Med Chem Lett, 2011).
